Experimental findings from patent publication US4837204A, “Functionalized peptidyl aminodiols and -triols” (Abbott Laboratories, priority 1988, dated 1989) are described below.

A word on the IC50: it is the point on the concentration scale where inhibition reaches its midpoint. High values mean weaker potency in that assay, low ones greater potency in that assay.

This experiment has as its target T1, human renal renin (Homo sapiens, UniProt P00797).
T1 construct: human renal renin, free from acid proteolytic activity; from tissue
T1 sequence (P00797 67-406): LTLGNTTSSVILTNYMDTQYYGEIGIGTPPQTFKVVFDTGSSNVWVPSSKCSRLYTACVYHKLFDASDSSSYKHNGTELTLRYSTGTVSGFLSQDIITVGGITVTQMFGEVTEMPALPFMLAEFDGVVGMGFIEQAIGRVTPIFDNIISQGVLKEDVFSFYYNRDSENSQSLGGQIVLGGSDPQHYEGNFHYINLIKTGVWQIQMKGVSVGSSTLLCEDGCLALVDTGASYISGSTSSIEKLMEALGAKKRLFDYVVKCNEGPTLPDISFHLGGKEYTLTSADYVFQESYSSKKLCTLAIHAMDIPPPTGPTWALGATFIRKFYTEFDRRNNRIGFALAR
Put plainly: in vitro inhibition of human renal renin (angiotensin I formed measured by radioimmunoassay). Format: biochemical. To be noted: human renal renin with renin substrate (human angiotensinogen), 37° C., pH 6.0.

As to `CCOC(=O)N[C@@H](Cc1ccccc1)C(=O)N[C@@H](CC(C)C)C(=O)N[C@@H](CC1CCCCC1)C(O)C(O)C(O)C(C)C` (single isomer, unassigned) [Example 36A], inhibition was half-maximal at 30 nM (IC50).
`CCOC(=O)N[C@@H](Cc1ccccc1)C(=O)N[C@@H](CC(C)C)C(=O)N[C@@H](CC1CCCCC1)C(O)C(O)C(O)C(C)C` (single isomer, unassigned) [Example 36B] returned a half-maximal inhibitory concentration (IC50) of 10 nM.
Then `CC(C)CCC(=O)NC[C@H](O)[C@H](O)[C@H](CC1CCCCC1)NC(=O)[C@H](Cc1c[nH]cn1)NC(=O)[C@H](Cc1ccccc1)NC(=O)OC(C)(C)C` [Example 14, Boc-Phe-His Amide of (2S,3R,4S)-1-(3-Methylbutylcarbonylamino)-2,3-dihydroxy-4-amino-5-cyclohexylpentane], with 4 nM; and `CC(C)CCC(=O)NC[C@H](O)[C@H](O)[C@H](CC1CCCCC1)NC(=O)C(Cc1cc[nH]n1)NC(=O)[C@H](Cc1ccccc1)NC(=O)OC(C)(C)C` (stereo partly drawn) [Example 15, Boc-Phe-d,l-3-pyrazolylalanine Amide of (2S,3R,4S)-1-(3-Methylbutylcarbonylamino)-2,3-dihydroxy-4-amino-5-cyclohexylpentane], with 6 nM.
Under `CC(C)CS(=O)(=O)NC[C@H](O)[C@H](O)[C@H](CC1CCCCC1)NC(=O)[C@H](Cc1c[nH]cn1)NC(=O)[C@H](Cc1ccccc1)NC(=O)OC(C)(C)C` [Example 16, Boc-Phe-His Amide of (2S,3R,4S)-1-(Isobutylsulfonylamino)-2,3-dihydroxy-4-amino-5-cyclohexylpentane] stands 10 nM.
Then `CC(C)(C)OC(=O)N[C@@H](Cc1ccccc1)C(=O)N[C@@H](Cc1c[nH]cn1)C(=O)N[C@@H](CC1CCCCC1)[C@@H](O)[C@@H](O)CN=[N+]=[N-]` [Example 17, Boc-Phe-His Amide of (2S,3R,4S)-1-Azido-2,3-dihydroxy-4-amino-5-cyclohexlpentane], with 0.4 nM; and `COc1ccc(C[C@H](NC(=O)OC(C)(C)C)C(=O)N[C@@H](Cc2c[nH]cn2)C(=O)N[C@@H](CC2CCCCC2)[C@@H](O)[C@@H](O)CN=[N+]=[N-])cc1` [Example 19, Boc-(O-methyl)Tyr-His Amide of (2S,3R,4S)-1-Azido-2,3-dihydroxy-4-amino-5-cyclohexylpentane], with 0.65 nM.
Turning to `C[C@H](NC(=O)[C@H](Cc1ccccc1)NC(=O)OC(C)(C)C)C(=O)N[C@@H](CC1CCCCC1)[C@@H](O)[C@@H](O)CN=[N+]=[N-]` [Example 20, Boc-Phe-Ala-OH Amide of (2S,3R,4S)-1-Azido-2,3-dihydroxy-4-amino-5-cyclohexylpentane], the midpoint of inhibition, the IC50, lay at 10 nM.
Then `C[C@H](NC(=O)[C@H](Cc1ccccc1)NC(=O)OC(C)(C)C)C(=O)N[C@@H](CC1CCCCC1)[C@@H](O)[C@@H](O)CN` [Example 31, Boc-Phe-Ala Amide (4-amino) of (2S,3R,4S)-1,4-Diamino-2,3-dihydroxy-5-cyclohexylpentane], with 55 nM.
Under `CCOC(=O)N[C@@H](CC(C)C)C(=O)N[C@@H](CC(C)C)C(=O)N[C@@H](CC1CCCCC1)C(O)C(O)CO` (stereo partly drawn) [Example 32, Ethoxycarbonyl-Leu-Leu Amide of (2RS,3RS,4S)-Amino-5-cyclohexyl-1,2,3-trihydroxypentane] stands 50 nM; under `COc1ccc(C[C@H](NC(=O)C(C)C)C(=O)N[C@@H](Cc2c[nH]cn2)C(=O)N[C@@H](CC2CCCCC2)[C@@H](O)[C@@H](O)CN=[N+]=[N-])cc1` [Example 47, Isobutyryl (O-methyl)Tyr-His Amide of (2S,3R,4S)-1-Azido-2,3-dihydroxy-4-amino-5-cyclohexylpentane], 2 nM; under `CC(C)C(=O)N[C@H](C(=O)N[C@@H](Cc1c[nH]cn1)C(=O)N[C@@H](CC1CCCCC1)[C@@H](O)[C@@H](O)CN=[N+]=[N-])[C@@H](C)OCc1ccccc1` [Example 52, Isobutyryl (O-benzyl)Thr-His Amide of (2S,3R,4S)-1-Azido-2,3-dihydroxy-4-amino-5-cyclohexylpentane], 4 nM.
Under `COc1ccc(C[C@H](NC(=O)N(C)C)C(=O)N[C@@H](Cc2c[nH]cn2)C(=O)N[C@@H](CC2CCCCC2)[C@@H](O)[C@@H](O)CN=[N+]=[N-])cc1` [Example 69, Dimethylaminocarbonyl (O-methyl)Tyr-His Amide of (2S,3R,4S)-1-Azido-2,3-dihydroxy-4-amino-5-cyclohexylpentane] stands 10 nM.
In turn, `CC(C)(CC(=O)N[C@@H](Cc1ccccc1)C(=O)N[C@@H](Cc1c[nH]cn1)C(=O)N[C@@H](CC1CCCCC1)[C@@H](O)[C@@H](O)CN=[N+]=[N-])CC(=O)OC(C)(C)C` [Example 70, (4-t-Butyloxycarbonyl-3,3-dimethyl)butanoyl-Phe-His Amide of (2S,3R,4S)-1-Azido-2,3-dihydroxy-4-amino-5-cyclohexylpentane] registered an IC50 of 1 nM.
Then `COc1ccc(C[C@H](NC(=O)N2CCOCC2)C(=O)N[C@@H](Cc2c[nH]cn2)C(=O)N[C@@H](CC2CCCCC2)[C@@H](O)[C@@H](O)CN=[N+]=[N-])cc1` [Example 72, Morpholinocarbonyl (O-methyl)Tyr-His Amide of (2S,3R,4S)-1-Azido-2,3-dihydroxy-4-amino-5-cyclohexylpentane], with 4 nM.
